{"source": "patent US7098372B1", "about": "“Pharmaceutical compositions and methods of using secreted frizzled related protein” (Wyeth, priority 1999, dated 2006)", "system": "β-catenin", "experiment": "Western blot analysis for β-catenin", "assay_type": "cell-based, human", "details": "hOB-03-CE6 cells, 100 nM, 24 hr", "method": "FIG. 15 is an autoradiogram of a Western blot of whole cell extracts isolated from hOB-03-CE6 cells treated with either control or PGE2 for 24 hr. The immunoblot was probed with a monoclonal antibody to β-catenin, which has a molecular weight of 92,000.\nIn order to determine if the up-regulation of SFRP-1/FRP-1/SARP-2 gene expression results in an antagonism of the Wnt signaling pathway, hOB-03-CE6 cells were treated with PGE2 and the resulting cells probed with β-catenin monoclonal antibody. Overexpression of Wnt proteins in cells up-regulates a signaling protein known as β-catenin (reviewed in Moon et al. 1997 Cell 88: 725–728; Barth et al. 1997 Curr. Opin. Cell Biol. 9: 683–690; and Nusse 1997 Cell 89: 321–323). […] Therefore, hOB-03-CE6 cells were plated and treated with PGE2 as described in Example 1, except that total cellular protein was extracted and a Western blot analysis for β-catenin was performed using a monoclonal antibody to the protein (Transduction Laboratories) as previously described (Bodine et al. 1996 Endocrinology 137: 4592–4604; Melkonyan et al. 1997 Proc. Natl. Acad. Sci. USA 94: 13636–13641). […] Both human and rat SFRP-1/FRP-1/SARP-2, as well as human Frzb-1/FrzB/Fritz, suppressed TCF-luciferase activity in the hOB cells.", "data": [{"smiles": "CCCCC[C@H](O)/C=C/[C@H]1[C@H](O)CC(=O)[C@@H]1C/C=C\\CCCC(=O)O", "note": "[PGE2, prostaglandin E2]", "values": [{"measurement": "β-catenin protein levels", "result": "down-regulated"}]}]}
